Results taken from patent publication US12043600B2, “Microbiocidal compounds” (SYNGENTA CROP PROTECTION AG, priority 2018, dated 2024).
Like-named read-outs stand apart in the source and are kept apart here.

Columns and labels:
[1] = system: Blumeria graminis f. sp. tritici (Erysiphe graminis f. sp. tritici); assay: Blumeria graminis f. sp. tritici/Wheat/Leaf Disc Preventative (Powdery Mildew on Wheat); type: in vivo; details: foliar, wheat leaf disc preventative, compared to untreated control
Protocol: Wheat leaf segments cv. Kanzler are placed on agar in a multiwell plate (24-well format) and sprayed with the formulated test compound diluted in water. The leaf disks are inoculated by shaking powdery mildew infected plants above the test plates 1 day after application. The inoculated leaf disks are incubated at 20° C. and 60% rh under a light regime of 24 h darkness followed by 12 h light/12 h darkness in a climate chamber and the activity of a compound is assessed as percent disease control compared to untreated when an appropriate level of disease damage appears on untreated check leaf segments (6-8 days after application).

[2] = system: Phaeosphaeria nodorum (Septoria nodorum); assay: Phaeosphaeria nodorum (Septoria nodorum)/Wheat/Leaf Disc Preventative (Glume Blotch); type: in vivo; details: Parastagonospora nodorum, foliar, wheat leaf disc preventative, compared to untreated control
Protocol: Wheat leaf segments cv. Kanzler are placed on agar in a multiwell plate (24-well format) and sprayed with the formulated test compound diluted in water. The leaf disks are inoculated with a spore suspension of the fungus 2 days after application. The inoculated test leaf disks are incubated at 20° C. and 75% rh under a light regime of 12 h light/12 h darkness in a climate cabinet and the activity of a compound is assessed as percent disease control compared to untreated when an appropriate level of disease damage appears in untreated check leaf disks (5-7 days after application).

[3] = system: Monographella nivalis (Microdochium nivale); assay: Monographella nivalis (Microdochium nivale)/Liquid Culture (Foot Rot Cereals); type: cell-based; details: liquid culture, compared to untreated control
Protocol: (§1) Conidia of the fungus from cryogenic storage are directly mixed into nutrient broth (PDB potato dextrose broth). After placing a (DMSO) solution of test compound into a microtiter plate (96-well format), the nutrient broth containing the fungal spores is added.

[4] = system: Mycosphaerella arachidis (Cercospora arachidicola); assay: Mycosphaerella arachidis (Cercospora arachidicola)/Liquid Culture (Early Leaf Spot); type: cell-based; details: liquid culture, compared to untreated control
Protocol: as §1

Phakopsora pachyrhizi = assay: Phakopsora pachyrhizi/Soybean/Preventative (Soybean Rust); type: in vivo; details: 288 h
Phytophthora infestans = assay: whole plant or invertebrate; type: in vivo; details: in Solanum lycopersicum, foliar, read-out: control of Phytophthora infestans
Plasmopara viticola = assay: whole plant or invertebrate; type: in vivo; details: foliar, read-out: control of Plasmopara viticola
[5] = system: Puccinia recondita f. sp. tritici; assay: Puccinia recondita f. sp. tritici/Wheat/Leaf Disc Preventative (Brown Rust); type: in vivo; details: foliar; for pest or weed control at 200 ppm: wheat leaf disc preventative, compared to untreated control, read-out: control of Puccinia recondita f. sp. tritici
[6] = system: Mycosphaerella graminicola (Septoria tritici); assay: Mycosphaerella graminicola (Septoria tritici)/Liquid Culture (Septoria Blotch); type: cell-based; details: Zymoseptoria tritici; for inhibition of growth at 20 ppm: liquid culture, compared to untreated control
Protocol: Conidia of the fungus from cryogenic storage are directly mixed into nutrient broth (PDB potato dextrose broth). After placing a (DMSO) solution of test compound into a microtiter plate (96-well format), the nutrient broth containing the fungal spores is added. […] The data are presented as the percentage of disease control of each compound for the biological tests against G. lagenarium (Example B3), P. recondita preventative (Example B13), P. teres (Example B15) and M. graminicola (Example B19) as described above. The testing rates of each biological test is specifically described in table C1 below.

[7] = system: Magnaporthe grisea (Pyricularia oryzae); assay: whole plant or invertebrate; type: in vivo; details: foliar, read-out: control of Magnaporthe grisea
[8] = system: Glomerella lagenarium (Colletotrichum lagenarium); assay: Glomerella lagenarium (Colletotrichum lagenarium)/Liquid Culture (Anthracnose); type: cell-based; details: Colletotrichum orbiculare, liquid culture, compared to untreated control
[9] = foliar, soybean leaf disc preventative, compared to untreated control, read-out: control of Phakopsora pachyrhizi
[10] = Phakopsora pachyrhizi (Soybean rust)
[11] = Phakopsora pachyrhizi (Soybean rust), read-out: control (%)

In the case of `CO/C=C(\Oc1cc(-n2ccc(C(F)(F)F)n2)cc(F)c1C)C(=O)OC` [Compound E-3, methyl (Z)-2-[3-fluoro-2-methyl-5-[3-(trifluoromethyl)pyrazol-1-yl]phenoxy]-3-methoxy-prop-2-enoate], the pest or weed control at 200 ppm [1] is reported as no less than 80%, the pest or weed control at 200 ppm [2] is reported as no less than 80% and the inhibition of growth at 20 ppm [3] is reported as no less than 80%. It also gave an inhibition of growth at 20 ppm [4] of no less than 80%, a pest or weed control at 200 ppm (Phakopsora pachyrhizi; [9]) of no less than 50% and a pest or weed control at 200 ppm (Phytophthora infestans) of no less than 80%. It also gave a pest or weed control at 200 ppm (Plasmopara viticola) of no less than 80%, a pest or weed control at 200 ppm [5] of no less than 80% and an inhibition of growth at 20 ppm [6] of no less than 80%. The melting point was 133 to 135 °C.

Work on `CCC(CC)c1ccn(-c2ccc(C)c(O/C(=C\OC)C(=O)OC)c2)n1` [Compound E-4, methyl (Z)-2-[5-[3-(1-ethylpropyl)pyrazol-1-yl]-2-methyl-phenoxy]-3-methoxy-prop-2-enoate] yielded a pest or weed control at 200 ppm [1] of no less than 80%, a pest or weed control at 200 ppm [2] of no less than 80% and an inhibition of growth at 20 ppm [3] of no less than 80%. For the same molecule, the inhibition of growth at 20 ppm [4] was no less than 80%, the pest or weed control at 200 ppm (Phakopsora pachyrhizi; [9]) was no less than 50% and the pest or weed control at 200 ppm (Phytophthora infestans) was no less than 80%. For the same molecule, the pest or weed control at 200 ppm [5] was no less than 80%, the inhibition of growth at 20 ppm [6] was no less than 80% and the melting point was 108 to 111 °C.

`CO/C=C(\Oc1cccc(-n2ccc(C)n2)c1)C(=O)OC` [Compound E-9, methyl (Z)-3-methoxy-2-[3-(3-methylpyrazol-1-yl)phenoxy]prop-2-enoate] showed an inhibition of growth at 20 ppm [3] of no less than 80%, an inhibition of growth at 20 ppm [4] of no less than 80% and an inhibition of growth at 20 ppm [6] of no less than 80%.

`CO/C=C(\Oc1cc(-n2cc(Br)c(C3CCCCC3)n2)ccc1C)C(=O)OC` [Compound E-10, methyl (Z)-2-[5-(4-bromo-3-cyclohexyl-pyrazol-1-yl)-2-methyl-phenoxy]-3-methoxy-prop-2-enoate] gave an inhibition of growth at 20 ppm [3] of no less than 80%, an inhibition of growth at 20 ppm [4] of no less than 80% and a pest or weed control at 200 ppm [7] of no less than 80%. It also gave an inhibition of growth at 20 ppm [6] of no less than 80% and a melting point of 120 to 126 °C.

`CCCOc1ccn(-c2ccc(C)c(O/C(=C\OC)C(=O)OC)c2)n1` [Compound E-13, methyl (Z)-3-methoxy-2-[2-methyl-5-(3-propoxypyrazol-1-yl)phenoxy]prop-2-enoate] showed a melting point of 85 to 87 °C.

`CO/C=C(\Oc1cccc(-n2ccc(C3CC3)n2)c1)C(=O)OC` [Compound E-14, methyl (Z)-2-[3-(3-cyclopropylpyrazol-1-yl)phenoxy]-3-methoxy-prop-2-enoate] showed an inhibition of growth at 20 ppm [8] of no less than 80%, an inhibition of growth at 20 ppm [3] of no less than 80% and an inhibition of growth at 20 ppm [4] of no less than 80%. It also gave an inhibition of growth at 20 ppm [6] of no less than 80%.

With `CO/C=C(\Oc1cc(-n2ccc(C(F)(F)F)n2)cc(OC)c1C)C(=O)OC` [Compound E-22, methyl (Z)-3-methoxy-2-[3-methoxy-2-methyl-5-[3-(trifluoromethyl)pyrazol-1-yl]phenoxy]prop-2-enoate] the pest or weed control at 200 ppm [1] was no less than 80%, the inhibition of growth at 20 ppm [3] was no less than 80% and the inhibition of growth at 20 ppm [4] was no less than 80%. It also gave a pest or weed control at 200 ppm (Phytophthora infestans) of no less than 80%, a pest or weed control at 200 ppm [5] of no less than 80% and an inhibition of growth at 20 ppm [6] of no less than 80%. The melting point was 153 to 156 °C.

`CO/C=C(\Oc1cc(-n2ccc(CSC)n2)ccc1C)C(=O)OC` [Compound E-76, methyl (Z)-3-methoxy-2-[2-methyl-5-[3-(methylsulfanylmethyl)pyrazol-1-yl]phenoxy]prop-2-enoate] gave an inhibition of growth at 20 ppm [3] of no less than 80%, an inhibition of growth at 20 ppm [4] of no less than 80% and a pest or weed control at 200 ppm (Phytophthora infestans) of no less than 80%. It also gave a pest or weed control at 200 ppm (Plasmopara viticola) of no less than 80%, a pest or weed control at 200 ppm [5] of no less than 80% and a pest or weed control at 200 ppm [7] of no less than 80%. For the same molecule, the inhibition of growth at 20 ppm [6] was no less than 80% and the melting point was 78 to 80 °C.

In the case of `CO/C=C(\Oc1cc(-n2ccc(Br)n2)ccc1Br)C(=O)OC` [Compound E-84, methyl (Z)-2-[2-bromo-5-(3-bromopyrazol-1-yl)phenoxy]-3-methoxy-prop-2-enoate], the inhibition of growth at 20 ppm [8] is reported as no less than 80%, the pest or weed control at 200 ppm [1] is reported as no less than 80% and the pest or weed control at 200 ppm [2] is reported as no less than 80%. The inhibition of growth at 20 ppm [3] was no less than 80%, the inhibition of growth at 20 ppm [4] was no less than 80% and the pest or weed control at 200 ppm (Phakopsora pachyrhizi; [9]) was no less than 50%. The pest or weed control at 200 ppm (Plasmopara viticola) was no less than 80%, the pest or weed control at 200 ppm [5] was no less than 80% and the inhibition of growth at 20 ppm [6] was no less than 80%.

For `CO/C=C(\Oc1cc(-n2ccc(C)n2)ccc1C1CC1)C(=O)OC` [Compound E-106, methyl (Z)-2-[2-cyclopropyl-5-(3-methylpyrazol-1-yl)phenoxy]-3-methoxy-prop-2-enoate], the pest or weed control at 200 ppm (Plasmopara viticola) was no less than 80%, the pest or weed control at 200 ppm [5] was no less than 80% and the melting point was 189 to 191 °C.

For `CCc1ccc(-n2ccc(C)n2)cc1O/C(=C\OC)C(=O)OC` [Compound E-107, methyl (Z)-2-[2-ethyl-5-(3-methylpyrazol-1-yl)phenoxy]-3-methoxy-prop-2-enoate], the pest or weed control at 200 ppm [5] was no less than 80%, the inhibition of growth at 20 ppm [6] was no less than 80% and the melting point was 169 to 171 °C.

Work on `CO/C=C(\Oc1cc(-n2cc(Cl)c(Cl)n2)ccc1C)C(=O)OC` [Compound E-111, methyl (Z)-2-[5-(3,4-dichloropyrazol-1-yl)-2-methyl-phenoxy]-3-methoxy-prop-2-enoate] yielded an inhibition of growth at 20 ppm [8] of no less than 80%, a pest or weed control at 200 ppm [1] of no less than 80% and a pest or weed control at 200 ppm [2] of no less than 80%. The inhibition of growth at 20 ppm [3] was no less than 80%, the inhibition of growth at 20 ppm [4] was no less than 80% and the pest or weed control at 200 ppm (Plasmopara viticola) was no less than 80%. The melting point was 140 to 144 °C.

In the case of `CO/C=C(\Oc1cc(-n2ncc(C(F)(F)F)n2)ccc1C)C(=O)OC` [Compound F-6, methyl (Z)-3-methoxy-2-[2-methyl-5-[4-(trifluoromethyl)triazol-2-yl]phenoxy]prop-2-enoate], the inhibition of growth at 20 ppm [8] is reported as no less than 80%, the pest or weed control at 200 ppm [1] is reported as no less than 80% and the pest or weed control at 200 ppm [2] is reported as no less than 80%. The inhibition of growth at 20 ppm [3] was no less than 80%, the inhibition of growth at 20 ppm [4] was no less than 80% and the pest or weed control at 0.6 ppm (Phakopsora pachyrhizi; [10]) was 0%. For the same molecule, the pest or weed control at 2 ppm (Phakopsora pachyrhizi; [10]) was 0%, the pest or weed control at 6 ppm (Phakopsora pachyrhizi; [10]) was 20% and the pest or weed control at 20 ppm (Phakopsora pachyrhizi; [10]) was 80%. It also gave a pest or weed control at 60 ppm (Phakopsora pachyrhizi; [10]) of 100%, a pest or weed control at 200 ppm (Phakopsora pachyrhizi; [11]) of 100% and a pest or weed control at 200 ppm (Phytophthora infestans) of no less than 80%. For the same molecule, the pest or weed control at 200 ppm (Plasmopara viticola) was no less than 80%, the pest or weed control at 200 ppm [7] was no less than 80% and the inhibition of growth at 20 ppm [6] was no less than 80%. The melting point was 107 to 109 °C.

With `CO/C=C(\Oc1cc(-n2cccc2)ccc1C)C(=O)OC` [Compound X-2, reference compound] the pest or weed control at 0.6 ppm (Phakopsora pachyrhizi; [10]) was 0%, the pest or weed control at 2 ppm (Phakopsora pachyrhizi; [10]) was 0% and the pest or weed control at 6 ppm (Phakopsora pachyrhizi; [10]) was 0%. The pest or weed control at 20 ppm (Phakopsora pachyrhizi; [10]) was 0%, the pest or weed control at 60 ppm (Phakopsora pachyrhizi; [10]) was 70% and the pest or weed control at 200 ppm (Phakopsora pachyrhizi; [11]) was 100%.

`CO/C=C(\Oc1cc(-c2cccc(C(F)(F)F)n2)ccc1C)C(=O)OC` [Compound X-3, reference compound] showed a pest or weed control at 0.6 ppm (Phakopsora pachyrhizi; [10]) of 0%, a pest or weed control at 2 ppm (Phakopsora pachyrhizi; [10]) of 0% and a pest or weed control at 6 ppm (Phakopsora pachyrhizi; [10]) of 0%. The pest or weed control at 20 ppm (Phakopsora pachyrhizi; [10]) was 10%, the pest or weed control at 60 ppm (Phakopsora pachyrhizi; [10]) was 50% and the pest or weed control at 200 ppm (Phakopsora pachyrhizi; [11]) was 85%.

In the case of `CCCc1ccn(-c2ccc(C)c(O/C(=C\OC)C(=O)OC)c2)n1` [drawing 151], the pest or weed control at 60 ppm ([5]; P. recondita prev (B13), 60 ppm, read-out: Disease control (%)) is reported as 70% and the inhibition of growth at 6 ppm ([6]; M. graminicola (B19), 6 ppm, read-out: Disease control (%)) is reported as 100%.
